According to US20220265691A1, “METHODS FOR USE OF GENE EXPRESSION AS AN INDICATOR OF E-SELECTIN INHIBITOR EFFICACY AND CLINICAL OUTCOME FOR MULTIPLE TUMOR TYPES” (GLYCOMIMETICS, INC., priority 2019, published 2022):

What was measured:
[1] = biological target: T1, E-selectin (Homo sapiens, UniProt P16581); assay: E-Selectin Activity - competitive binding assay (sLea polyacrylamide / immobilized E-selectin/Ig chimera); settings: inhibition of sLea conjugate binding to immobilized E-selectin/Ig chimera; read-out: IC50 (E-Selectin Antagonist Activity)
T1 construct: fused on or other part: Immunoglobulin (Ig) part fused to E-selectin as a handle for immobilisation
T1 sequence (P16581 22-175 limits assumed): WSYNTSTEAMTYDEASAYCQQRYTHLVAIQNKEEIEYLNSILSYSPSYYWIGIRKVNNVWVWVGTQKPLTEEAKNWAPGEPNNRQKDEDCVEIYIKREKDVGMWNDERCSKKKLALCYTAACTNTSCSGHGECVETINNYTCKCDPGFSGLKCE
Protocol: The inhibition assay to screen and characterize antagonists of E-selectin is a competitive binding assay, from which IC50 values may be determined. E-selectin/Ig chimera are immobilized in 96 well microtiter plates by incubation at 37° C. for 2 hours. To reduce nonspecific binding, bovine serum albumin is added to each well and incubated at room temperature for 2 hours. The plate is washed and serial dilutions of the test compounds are added to the wells in the presence of conjugates of biotinylated, sLea polyacrylamide with streptavidin/horseradish peroxidase and incubated for 2 hours at room temperature.
To determine the amount of sLe^a bound to immobilized E-selectin after washing, the peroxidase substrate, 3,3′,5,5′ tetramethylbenzidine (TMB) is added. After 3 minutes, the enzyme reaction is stopped by the addition of H3PO4, and the absorbance of light at a wavelength of 450 nm is determined. The concentration of test compound required to inhibit binding by 50% is determined.

[2] = system: relapsed or refractory AML; assay: Phase I/II trial of Formula I in combination with chemotherapy for AML; type: in vivo, human; settings: for overall survival (OS): Formula I plus chemotherapy
Protocol: Phase I/II trial of Formula I in combination with chemotherapy for AML: A specific glycomimetic antagonist of E-selectin (Formula I) was rationally designed based on the bioactive conformation of sialyl Le^a/x in the binding site of E-selectin. Treatment of AML relapsed/refractory patients with the compound of Formula I and chemotherapy were evaluated for response. In a Phase I trial, 19 patients were treated with the compound of Formula I twice a day at 5 mg/kg (n=6), 10 mg/kg (n=7), and 20 mg/kg doses (n=6), in combination with induction MEC (mitoxantrone, epotoside, and cytarabine) chemotherapy. In a Phase II trial, the treatment regimen comprised one 10 mg/kg dose of the compound of Formula I 24 hours prior to chemotherapy, then twice daily 10 mg/kg doses of the compound of Formula I throughout either MEC (mitoxantrone, etoposide, and cytarabine) or 7+3 (cytarabine for 7 days followed by 3 days of daunorubicin, idarubicin or mitoxantrone) chemotherapy up till 48 hours post-chemotherapy. AML blasts from the patients' bone marrow and peripheral blood were isolated, and the expression of E-selectin ligand on the blasts was measured using immunofluorescence. Patient response to treatment was also assessed.

CCC1CC(C(=O)NCCNC(=O)c2cn(CC(COS(=O)(=O)O)(COS(=O)(=O)O)COS(=O)(=O)O)nn2)C[C@@H](O[C@@H]2OC(CO)[C@H](O)C(O[C@@H](CC3CCCCC3)C(=O)O)C2NC(=O)Cn2cc(COCCOCCOCCOCCOCc3cn(CC(=O)NC4C(O[C@@H](CC5CCCCC5)C(=O)O)[C@@H](O)C(CO)O[C@H]4O[C@@H]4CC(C(=O)NCCNC(=O)c5cn(CC(COS(=O)(=O)O)(COS(=O)(=O)O)COS(=O)(=O)O)nn5)CC(CC)C4O[C@@H]4OC(C)[C@@H](O)C(O)C4O)nn3)nn2)C1O[C@@H]1OC(C)[C@@H](O)C(O)C1O (some centres unmarked) [Compound 206]
IC50 [1]: 1.6 nM

CCC1CC(C(=O)NCCNC(=O)CCOCCOCCOCCOCCOCCOCCOCCOCCOCCOCCOCCOC)C[C@@H](O[C@@H]2O[C@@H](CO)[C@H](O)C(O[C@@H](CC3CCCCC3)C(=O)O)C2NC(C)=O)[C@@H]1OC1O[C@@H](C)[C@H](O)C(O)[C@@H]1O (some centres unmarked) [compound of Formula I]
overall survival (OS) ([2]; patients with greater than 10% of blasts expressing E-selectin ligand (HECA-452; high expressers)): 12.7 months | overall survival (OS) ([2]; patients with less than 10% blasts expressing E-selectin ligand (HECA-452; low expressers)): 5.2 months | response rate (CR/CRi) ([2]; patients with relapsed or refractory AML, compound of Formula I plus chemotherapy): 41% | CR/CRi rate after a single course of induction treatment ([2]; relapsed or refractory AML, single course of induction, higher than historical controls treated with MEC): 47%
